# Assay results reported in patent US20110269231A1, “PROTEOGLYCAN-BINDING PEPTIDES THAT MODULATE STEM CELL BEHAVIOR” (WISCONSIN ALUMNI RESEARCH FOUNDATION, priority 2010, published 2011).
# Square brackets hold non-standard residues; d marks the D form. Ends that are not written are not given here. Gla = N[C@@H](CC(C(=O)O)C(=O)O)C(=O)O
# B1: KRTGQYKL synthetic heparin-binding peptide (SEQ ID NO: 1), immobilized on a self-assembled monolayer (peptide)
# peptide: KRTGQYKL-NH2
# modifications: also: immobilized on oligo(ethylene glycol) alkanethiolate SAM on gold
# notes: Made by Fmoc solid phase synthesis on Rink amide MBHA resin
# B2: RGDSP cell adhesion (integrin-binding) peptide (SEQ ID NO: 8), immobilized on a self-assembled monolayer (peptide)
# peptide: RGDSP-NH2
# modifications: also: immobilized on SAM on gold
# notes: Made by Fmoc solid phase synthesis on Rink amide MBHA resin and conjugated to a SAM on gold; also called RGDSP SAMs; cell-adhesion peptide
# Legend:
# [1] = system: human umbilical vein endothelial cells (HUVECs); test: HUVEC proliferation versus KRTGQYKL surface density and FGF-2 concentration; assay type: cell-based; details: 2% RGDSP, 10% FBS
# Experimental: Human umbilical vein endothelial cells (HUVECs) as a model cell type were used to investigate the correlation between the surface density of bound heparin PGs, the concentration of soluble FGF-2, and the extent of up-regulation of FGF-mediated cell proliferation.
# HUVECs were cultured according to the protocol supplied by the manufacturer. Sub-confluent cells were harvested from the plate, suspended in M199 supplemented with 10% FBS, and counted using a hemacytometer. Cells were collected as a pellet by centrifugation at 1100 rpm for 5 minutes, the media was decanted off of the pellet, and the cells were suspended in fresh serum-supplemented M199 at a density of 20,000 cells/250 μL. SAMs presenting 2% RGDSP (SEQ ID NO: 8) and various densities of KRTGQYKL (SEQ ID NO: 1) were prepared by incubating NHS-activated SAMs in 1× PBS solutions containing 125 μM RGDSP (SEQ ID NO: 8), and various molar ratios of KRTGQYKL (SEQ ID NO: 1) and TYRKKGLQ (SEQ ID NO: 9) at a total concentration of 125 μM Immediately after peptide conjugation, HUVECs were seeded on the SAM substrates at a density of 10,000 cells/cm^2 in M199 supplemented with 10% FBS. […] Brightfield photomicrographs (40× mag) of each substrate were collected on an Olympus IX51 inverted epifluorescent microscope at t=0, 24, 48, and 72 hrs, and the total number of cells per viewing area was counted manually.
# hMSCs [2] = test: hMSC projected cell area on SAMs presenting RGDSP and TYRSRKY; assay type: cell-based, human
# Experimental: (§1) To maintain multipotency, hMSCs were expanded at low density on tissue culture treated polystyrene plates. At passage 6, cells were harvested from the plate, suspended in medium supplemented with 10% fetal bovine serum, and counted using a hemacytometer. Cells were collected as a pellet by centrifugation at 1100 rpm for 5 minutes, the media was decanted off of the pellet, and the cells were suspended in fresh αMEM at a density of 20,000 cells/250 μL. SAM preparation and peptide conjugation were performed using the protocols described above Immediately after peptide conjugation, SAMs were placed into 1 mL of 1× PBS (pH 7.4) in a 12-well tissue culture plate to prevent degradation of the monolayer due to air oxidation. PBS was aspirated from the wells and replaced with 1.25 mL of αMEM, followed by addition of 250 μL of the cell suspension directly over the SAM substrate in each well. Plates were then gently rocked for 10 seconds to evenly distribute cells over the substrate surface. Substrates were then incubated for a specified time frame (12 hrs for RGESP/RGDSP SAMs, 4 hrs for RGDSP/TYRSRKY SAM in a humid environment at 37° C., 5% CO2 to allow hMSC attachment. At the end of the attachment period, the hMSC growth media was aspirated from the well and the substrates were gently washed with sterile 1× PBS to remove any loosely bound cells. The 1× PBS solution was then replaced with fresh medium. Brightfield photomicrographs of cells were then collected using an Olympus IX51 inverted microscope.
# (§2) hMSCs were seeded on the SAMs as described previously. After washing away loosely bound cells using 1× PBS, cytoskeletal immunostaining of hMSCs was performed by following the protocol supplied by the manufacturer. Briefly, a 4% paraformaldehyde solution in 1× PBS was added to the wells for 15 minutes to fix the cells, followed by a 5 minute incubation in a 1× PBS solution containing 0.05% Tween-20 to permeabilize the cells. […] After blocking, a 1× PBS solution containing an anti-Vinculin primary antibody was added to each well and allowed to incubate at room temperature for 60 minutes. The wells were then washed gently three times using a 1× PBS solution containing 0.1 wt % bovine serum albumin. Immediately after washing, a 1× PBS solution containing a fluorescein-tagged […] secondary antibody and a TRITC-tagged anti-Phalloidin antibody was added to each well and allowed to incubate at room temperature for 45 minutes. Substrates were then washed using the method described previously. Cytoskeletal staining was analyzed using an Olympus IX51 inverted epifluorescent microscope equipped with FITC and TRITC filter cube sets.
# hMSCs [3] = test: hMSC proliferation on KRTGQYKL-SAMs in the presence of FBS and PD 173074; assay type: cell-based, human; details: 200 nM PD 173074, 10% FBS; FIG. 11
# Experimental: Proliferation of hMSCs cultured on KRTGQYKL-SAMs in medium supplemented with FBS and PD 173074 was determined PD 173074 is a soluble inhibitor of FGF-2 and FGF-4 cognate receptors FGF receptor-1 and -3. hMSCs were cultured on SAMs presenting 2% RGDSP (SEQ ID NO: 8) and either 2% KRTGQYL (SEQ ID NO: 1) or TYRKKGLQ (SEQ ID NO: 9) in medium supplemented with 200 nM PD 173074 and 10% FBS.
# hMSCs were expanded at low density on tissue culture treated polystyrene plates using the method described previously by Sotiropoulou et al. to maintain […] (Sotiropoulou et al., “Characterization of the optimal culture conditions for clinical scale production of human mesenchymal stem cells,” Stem Cells, 24:462 (2006)). At passage 6, cells were harvested from the plate, suspended in medium supplemented with 10% fetal bovine serum, and counted using a hemacytometer. Cells were collected as a pellet by centrifugation at 1100 rpm for 5 minutes, the media was decanted off of the pellet, and the cells were suspended in αMEM supplemented with 10% FBS at a density of 20,000 cells/250 μL. […] The total number of cells per viewing area was counted manually for 3 samples per condition.
# hMSCs [4] = test: hMSC adhesion on RGESP- and RGDSP-presenting SAMs; assay type: cell-based, human; details: for hMSC attachment (number per unit area): RGDSP=0.0001, 0.001 or 0.01 vs RGESP alone, 12 hrs attachment
# Experimental: as §1, §2
# [5] = Binding of synthetic KRT peptide to hydroxyapatite (micro-BCA depletion); details: 50 μM peptide, 1 mg hydroxyapatite, 30 minutes at 37° C.
# Experimental: A 50 μM peptide solution containing the synthetic KRT peptide, KRTGQYKLGGGAAAA(Gla)PRR(Gla)VA(Gla)L (SEQ ID NO: 12), was incubated with 1 mg of hydroxyapatite particles for 30 minutes at 37° C. After incubation, the concentration of peptide in solution was determined using a micro-BCA assay (Pierce) as a measure of the depletion of the peptide from solution due to hydroxyapatite binding.
# recombinant human FGF-2 = biological target: T1, recombinant human FGF-2 (human, UniProt P09038 135-288, limits assumed); test: PM-IRRAS of 1% KRTGQYKL-SAMs after 20 min in 1x PBS with FGF-2
# T1 construct: also called rhFGF-2; fibroblast growth factor-2
# Experimental: PM-IRRAS was used to characterize FGF-2 binding onto […]-SAMs. 1% […] SAMs were incubated in a lx PBS solution (pH 7.4) containing 10 μg/mL recombinant human FGF-2 for 20 minutes and analyzed using PM-IRRAS.
# [6] = biological target: T2, alpha-5 beta-1 integrins (on human mesenchymal stem cells) (human, UniProt P08648 42-1049; P05556 21-798); test: hMSCs cultured on RGDSP-presenting SAMs in osteogenic induction medium (cell area, cell number, alkaline phosphatase)
# T2 construct: whole, on cells; Endogenous integrin on hMSCs; also called hMSC integrin receptors
# Experimental: SAMs were prepared as previously described. Low passage number hMSCs were harvested from polystyrene plates and seeded on SAMs presenting RGDSP (SEQ ID NO: 8), RGDSP(SEQ ID NO: 8)/[…](SEQ ID NO: 1), or RGDSP(SEQ ID NO: 8)/TYRSRKY(SEQ ID NO: 2), at specified surface densities at a cell density of 2500 cells/cm². Cells were cultured in αMEM basal medium supplemented with 10% FBS, 50 μg/mL 2-phosphate ascorbic acid, 10 mM β-glycerophosphate, and 100 nM dexamethasone for 7 days. Brightfield images of cells were collected to measure cell projected area and quantification of cell number as a function of time. At the end of the 7-day culture period, alkaline phosphatase activity was analyzed using the SensoLyte FDP alkaline phosphatase assay kid (Anaspec, Fremont, Calif.).
# T2 sequence (P08648 42-1049, chain 1 of 2): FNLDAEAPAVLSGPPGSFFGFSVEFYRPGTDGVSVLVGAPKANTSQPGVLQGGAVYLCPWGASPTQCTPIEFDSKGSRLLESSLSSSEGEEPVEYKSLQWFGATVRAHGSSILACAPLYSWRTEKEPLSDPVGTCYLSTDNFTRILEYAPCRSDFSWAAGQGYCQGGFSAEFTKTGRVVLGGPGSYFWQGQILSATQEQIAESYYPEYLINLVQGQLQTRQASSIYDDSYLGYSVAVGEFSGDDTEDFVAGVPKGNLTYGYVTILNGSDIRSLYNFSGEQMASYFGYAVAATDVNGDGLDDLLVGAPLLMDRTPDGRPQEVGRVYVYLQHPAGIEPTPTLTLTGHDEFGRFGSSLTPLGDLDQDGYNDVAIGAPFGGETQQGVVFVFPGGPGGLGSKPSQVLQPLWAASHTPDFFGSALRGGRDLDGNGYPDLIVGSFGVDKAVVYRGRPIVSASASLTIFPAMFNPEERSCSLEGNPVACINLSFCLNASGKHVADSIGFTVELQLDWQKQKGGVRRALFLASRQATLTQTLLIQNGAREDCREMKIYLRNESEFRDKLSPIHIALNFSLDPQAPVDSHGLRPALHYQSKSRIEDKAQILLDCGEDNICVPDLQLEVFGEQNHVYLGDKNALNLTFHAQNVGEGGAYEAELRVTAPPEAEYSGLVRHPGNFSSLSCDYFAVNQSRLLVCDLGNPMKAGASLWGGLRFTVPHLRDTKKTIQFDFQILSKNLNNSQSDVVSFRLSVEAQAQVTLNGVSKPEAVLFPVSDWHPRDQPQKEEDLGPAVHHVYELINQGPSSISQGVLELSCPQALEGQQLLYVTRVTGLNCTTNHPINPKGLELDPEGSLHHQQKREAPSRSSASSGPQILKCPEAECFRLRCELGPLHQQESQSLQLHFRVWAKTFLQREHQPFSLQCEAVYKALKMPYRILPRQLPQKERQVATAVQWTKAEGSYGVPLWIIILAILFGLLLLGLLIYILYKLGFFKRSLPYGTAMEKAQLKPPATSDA
# T2 sequence (P05556 21-798, chain 2 of 2): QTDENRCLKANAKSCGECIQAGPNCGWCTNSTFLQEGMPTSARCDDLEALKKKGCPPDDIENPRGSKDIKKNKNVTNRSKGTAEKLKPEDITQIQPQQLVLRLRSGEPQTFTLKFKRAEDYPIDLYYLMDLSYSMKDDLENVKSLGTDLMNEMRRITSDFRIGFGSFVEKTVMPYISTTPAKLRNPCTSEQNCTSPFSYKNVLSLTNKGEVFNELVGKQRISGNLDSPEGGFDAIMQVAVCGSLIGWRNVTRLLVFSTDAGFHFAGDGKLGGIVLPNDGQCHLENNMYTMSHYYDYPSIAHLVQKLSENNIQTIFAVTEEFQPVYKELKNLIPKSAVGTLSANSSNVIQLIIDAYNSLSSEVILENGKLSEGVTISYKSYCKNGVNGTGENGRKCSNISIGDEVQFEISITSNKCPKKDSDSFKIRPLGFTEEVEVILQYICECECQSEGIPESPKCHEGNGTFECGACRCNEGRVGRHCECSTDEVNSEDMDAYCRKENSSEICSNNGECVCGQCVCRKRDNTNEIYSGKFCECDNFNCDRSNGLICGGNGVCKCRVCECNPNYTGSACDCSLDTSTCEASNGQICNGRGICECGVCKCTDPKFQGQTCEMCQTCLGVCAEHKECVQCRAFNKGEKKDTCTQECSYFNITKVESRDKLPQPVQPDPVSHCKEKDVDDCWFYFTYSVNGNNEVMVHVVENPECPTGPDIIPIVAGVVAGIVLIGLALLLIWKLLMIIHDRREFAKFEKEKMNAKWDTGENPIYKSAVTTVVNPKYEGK
# T1 sequence (P09038 135-288 limits assumed): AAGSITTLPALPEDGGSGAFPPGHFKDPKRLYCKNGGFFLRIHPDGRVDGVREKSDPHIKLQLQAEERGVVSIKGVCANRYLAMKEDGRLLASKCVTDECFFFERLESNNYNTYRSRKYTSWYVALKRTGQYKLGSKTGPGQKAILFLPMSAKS
molecule,measurement,setting,value
KRTGQYKL,HUVEC number,"[1]; surface density of 2% KRTGQYKL, 1 ng/mL FGF-2",significant increase
same,HUVEC number,"[1]; surface density of KRTGQYKL>0.1%, 5 ng/mL FGF-2, by 72 hours",significant increase
TYRSRKY,hMSC morphology (projected cell area),"hMSCs [2]; 0.1% RGDSP, 0.1-1% TYRSRKY, 10% FBS",rounded morphology
same,hMSC morphology (projected cell area),"hMSCs [2]; 0.1% RGDSP, high TYRSRKY density, absence of serum",well-spread morphology
same,hMSC morphology (projected cell area),"hMSCs [2]; 0.1% RGDSP, low TYRSRKY surface density, absence of serum",rounded hMSCs morphology
same,hMSC morphology (projected cell area),"hMSCs [2]; 1.0% RGDSP, 0.1-1.0% TYRSRKY, absence of serum",well-spread hMSC morphology
same,hMSC spreading,"hMSCs [2]; 1.0% RGDSP, TYRSRKY>0.5%, 10% FBS",decrease in hMSC spreading
same,hMSC morphology (projected cell area),"hMSCs [2]; SAMs presenting 0.1-1.0% TYRSRKY, no RGDSP, presence or absence of serum",rounded morphology
CCN(CC)CCCCNc1ncc2cc(-c3cc(OC)cc(OC)c3)c(NC(=O)NC(C)(C)C)nc2n1 [PD 173074],increased proliferation of hMSCs on KRTGQYKL SAMs,hMSCs [3],completely abolished
"RGESP (not fully specified (C-terminus)) [amine-terminated peptide co-immobilized with RGDSP on SAMs, reference compound]",influence of co-immobilized peptide on RGDSP-dependent hMSC adhesion,hMSCs [4],did not influence RGDSP-dependent hMSC adhesion
same,hMSC attachment (number per unit area),hMSCs [4],absent
RGDSP,number of focal adhesion complexes versus RGDSP surface density,hMSCs [4]; FIGS. 36 and 38,direct correlation
same,hMSC attachment (number per unit area),hMSCs [4],significant number of hMSCs were present
same,hMSC morphology,hMSCs [4]; higher RGDSP densities (RGDSP=0.001 or 0.01),more well-spread morphology
same,hMSC morphology,hMSCs [4]; low density of RGDSP (RGDSP=0.0001),"polarized, spindle-shaped morphology"
KRTGQYKLGGGAAAA(Gla)PRR(Gla)VA(Gla)L (KRTGQYKLGGGAAAA[Gla]PRR[Gla]VA[Gla]L; not fully specified (C-terminus); printed as KRTGQYKLGGGAAAA(Gla)PRR(Gla)VA(Gla)L) [KRT peptide],peptide bound by hydroxyapatite particles,[5],66.08 nmol/m^2
B1,binding result,recombinant human FGF-2,no binding (tested: 10 µg/mL recombinant human FGF-2)
B2,binding result,[6],binds
